In publication PMC2709817 (Biochemistry, 2009):
Where two headings read alike, the source gives them in different places.

Legend:
Format in all cases: biochemical
LpxC [1] = biological target: T1, LpxC (Rhizobium johnstonii, UniProt Q1ME43); experiment: percent inhibition of purified LpxC ortholog at […]; conditions: read-out: 1-68Aa
T1 sequence (Q1ME43 1-318): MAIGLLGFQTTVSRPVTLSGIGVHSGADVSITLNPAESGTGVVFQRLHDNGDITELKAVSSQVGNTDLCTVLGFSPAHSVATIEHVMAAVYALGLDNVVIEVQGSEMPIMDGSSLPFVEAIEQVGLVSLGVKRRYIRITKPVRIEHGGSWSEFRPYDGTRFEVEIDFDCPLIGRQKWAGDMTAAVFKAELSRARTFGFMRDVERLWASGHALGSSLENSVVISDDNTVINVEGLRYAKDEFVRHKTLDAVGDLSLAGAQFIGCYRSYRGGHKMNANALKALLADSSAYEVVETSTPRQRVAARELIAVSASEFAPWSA

LpxC [2] = biological target: T2, LpxC (Helicobacter pylori, UniProt O25692); experiment: percent inhibition of purified LpxC ortholog at […]; conditions: read-out: 1-68Aa
T2 sequence (O25692 1-295): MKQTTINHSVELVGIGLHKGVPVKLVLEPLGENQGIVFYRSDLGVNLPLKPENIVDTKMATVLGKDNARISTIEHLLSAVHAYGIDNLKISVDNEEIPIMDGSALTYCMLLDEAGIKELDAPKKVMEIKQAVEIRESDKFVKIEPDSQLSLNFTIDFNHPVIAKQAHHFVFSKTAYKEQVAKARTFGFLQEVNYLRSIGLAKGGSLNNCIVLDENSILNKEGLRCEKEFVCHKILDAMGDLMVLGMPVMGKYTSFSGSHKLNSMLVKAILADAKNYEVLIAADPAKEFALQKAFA

[3] = biological target: T3, UDP-3-O-(R-3-hydroxyacyl)-N-acetylglucosamine deacetylase LpxC (Escherichia coli, UniProt P0A725); experiment: percent inhibition of purified LpxC at […]; conditions: read-out: 1-68Aa
T3 sequence (P0A725 1-305): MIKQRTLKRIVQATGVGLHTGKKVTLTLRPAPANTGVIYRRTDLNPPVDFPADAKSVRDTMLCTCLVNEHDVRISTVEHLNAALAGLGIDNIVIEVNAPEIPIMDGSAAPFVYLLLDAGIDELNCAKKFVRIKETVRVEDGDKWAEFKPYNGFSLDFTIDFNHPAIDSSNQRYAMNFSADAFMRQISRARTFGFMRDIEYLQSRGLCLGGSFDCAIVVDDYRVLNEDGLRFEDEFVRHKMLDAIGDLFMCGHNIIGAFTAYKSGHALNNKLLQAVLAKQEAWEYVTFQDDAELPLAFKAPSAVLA

LpxC [4] = biological target: T2, LpxC; experiment: percent inhibition of purified LpxC ortholog at […]; conditions: read-out: 1-68A

Row | SMILES | inhibition at 50 µM (LpxC [1]) | inhibition at 50 µM (LpxC [2]) | inhibition at 50 µM [3] | inhibition at 50 µM (LpxC [4])
1 | O=c1ccn([C@@H]2O[C@H](CON=Cc3ccc(O)c(O)c3)[C@@H](O)[C@H]2O)c(=O)[nH]1 [1-68Aa, 3,4-Dihydroxy-benzaldehyde O-[5-(2,4-dioxo-3,4-dihydro-2H-pyrimidin-1-yl)-3,4-dihydroxy-tetrahydro-furan-2-ylmethyl]-oxime] | 49% | 41% | 60% | 
2 | O=c1ccn([C@@H]2O[C@H](CON=Cc3ccc(O)c(O)c3O)[C@@H](O)[C@H]2O)c(=O)[nH]1 [1-68A] |  |  |  | 21%
